The source made the active and inactive calls. The calls are words filed in the database; no cut-off is given here.
Tests used:
Acetylcholinesterase [1] = target: Acetylcholinesterase (Homo sapiens, UniProt P22303); experiment: Inhibition of human recombinant AChE preincubated for 1 min in presence of DNTB followed by addition of acetylthiocholine iodide substrate and measured after 20 mins by Ellman's method
Acetylcholinesterase [2] = target: Acetylcholinesterase (Electrophorus electricus, UniProt O42275); experiment: Inhibition of electric eel recombinant AChE preincubated for 1 min in presence of DNTB followed by addition of acetylthiocholine iodide substrate and measured after 20 mins by Ellman's method
[3] = target: Glycogen synthase kinase-3 beta (Homo sapiens, UniProt P49841); experiment: Inhibition of human recombinant N-terminal His-tagged GSK3beta expressed in Escherichia coli using RRRPASVPPSPSLS RHS(pS)HQRR as substrate incubated for 30 mins in presence of ATP by Kinase-Glo reagent based luminescence assay
Mus musculus [4] = experiment: Cognitive enhancing effect in mouse model of scopolamine-induced amnesia assessed as decrease in escape latency at 10 mg/kg/day, po measured by Morris water maze test; assay type: functional, organism-based
Mus musculus [5] = experiment: Improvement in learning and spatial memory in amyloid beta (1 to 42)-induced mouse model of Alzheimer's disease assessed as increase in spontaneous alteration at 10 mg/kg/day, po pretreated with amyloid beta42 for 3 days followed by treatment with compound and measured after 9 days measured by Y-maze test; assay type: functional, organism-based; settings: time 9.0 day
Mus musculus [6] = experiment: Improvement in learning and spatial memory in amyloid beta (1 to 42)-induced mouse model of Alzheimer's disease at 10 mg/kg/day, po pretreated with amyloid beta42 for 3 days followed by treatment with compound and measured after 9 days measured by Y-maze test; assay type: functional, organism-based; settings: time 9.0 day

Sequence of Glycogen synthase kinase-3 beta (P49841 whole entry): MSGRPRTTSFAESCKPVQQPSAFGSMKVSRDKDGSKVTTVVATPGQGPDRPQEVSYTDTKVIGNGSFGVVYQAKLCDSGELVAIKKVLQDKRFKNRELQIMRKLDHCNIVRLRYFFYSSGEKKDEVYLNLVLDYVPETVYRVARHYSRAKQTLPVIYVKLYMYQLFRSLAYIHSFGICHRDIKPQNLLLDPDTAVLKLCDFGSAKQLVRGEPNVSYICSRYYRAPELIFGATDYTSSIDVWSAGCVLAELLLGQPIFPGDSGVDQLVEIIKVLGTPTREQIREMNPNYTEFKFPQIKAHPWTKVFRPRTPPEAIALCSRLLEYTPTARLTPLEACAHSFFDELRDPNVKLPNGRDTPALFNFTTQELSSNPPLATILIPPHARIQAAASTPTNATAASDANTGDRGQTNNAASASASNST
Sequence of Acetylcholinesterase (Electrophorus electricus, UniProt O42275) (O42275 whole entry): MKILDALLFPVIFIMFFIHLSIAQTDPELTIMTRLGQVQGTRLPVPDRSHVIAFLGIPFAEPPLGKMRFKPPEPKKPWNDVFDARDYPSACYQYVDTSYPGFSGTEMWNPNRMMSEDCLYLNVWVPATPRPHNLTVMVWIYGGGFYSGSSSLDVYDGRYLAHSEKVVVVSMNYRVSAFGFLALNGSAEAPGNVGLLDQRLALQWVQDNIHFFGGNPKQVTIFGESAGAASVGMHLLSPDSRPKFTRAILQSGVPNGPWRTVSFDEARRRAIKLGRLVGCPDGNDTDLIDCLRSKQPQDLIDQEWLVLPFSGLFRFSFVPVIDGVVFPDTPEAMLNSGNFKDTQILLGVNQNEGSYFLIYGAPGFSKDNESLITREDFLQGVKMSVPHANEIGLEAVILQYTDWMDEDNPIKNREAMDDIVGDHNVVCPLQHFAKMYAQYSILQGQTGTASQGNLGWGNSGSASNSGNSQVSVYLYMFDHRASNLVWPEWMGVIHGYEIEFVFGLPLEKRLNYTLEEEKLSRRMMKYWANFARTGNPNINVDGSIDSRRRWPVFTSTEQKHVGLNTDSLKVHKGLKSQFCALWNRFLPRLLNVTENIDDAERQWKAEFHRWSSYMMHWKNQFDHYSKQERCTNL
Sequence of Acetylcholinesterase (Homo sapiens, UniProt P22303) (P22303 whole entry): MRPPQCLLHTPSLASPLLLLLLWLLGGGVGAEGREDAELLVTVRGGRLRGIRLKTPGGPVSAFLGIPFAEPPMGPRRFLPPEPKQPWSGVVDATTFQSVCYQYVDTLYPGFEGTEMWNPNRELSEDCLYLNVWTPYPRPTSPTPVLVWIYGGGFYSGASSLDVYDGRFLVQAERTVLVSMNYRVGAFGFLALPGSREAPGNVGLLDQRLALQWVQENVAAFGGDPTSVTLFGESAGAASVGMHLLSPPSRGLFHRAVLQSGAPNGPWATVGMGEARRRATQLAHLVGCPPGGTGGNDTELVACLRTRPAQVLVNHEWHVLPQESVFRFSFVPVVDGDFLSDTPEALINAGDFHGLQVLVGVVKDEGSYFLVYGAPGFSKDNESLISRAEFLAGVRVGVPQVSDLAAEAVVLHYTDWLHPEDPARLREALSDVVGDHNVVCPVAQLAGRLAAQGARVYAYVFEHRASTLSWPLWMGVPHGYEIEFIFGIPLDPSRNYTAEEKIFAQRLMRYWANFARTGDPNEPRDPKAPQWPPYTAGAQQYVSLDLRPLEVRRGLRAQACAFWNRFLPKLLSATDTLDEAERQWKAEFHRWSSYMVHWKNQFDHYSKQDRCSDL

Row | SMILES | IC50 (Acetylcholinesterase [1]) [µM] | IC50 (Acetylcholinesterase [2]) [µM] | IC50 [3] [µM] | Activity (Mus musculus [4]) | Activity (Mus musculus [5]) | Activity (Mus musculus [6])
1 | O=C(CC1CCN(Cc2ccccc2F)CC1)Nc1n[nH]c2cc(-c3cccnc3)ccc12 | 0.691 | 0.39 | > 10 | – | – | –
2 | O=C(NCCC1CCN(Cc2cccc(Cl)c2)CC1)c1cncc(NC(=O)c2ccnc(NC(=O)C3CC3)c2)c1 | – | – | 0.152 | – | – | –
3 | O=C(NCC1CCN(Cc2ccccc2F)CC1)c1n[nH]c2ccc(-c3cccnc3)cc12 | 2.18 | 0.718 | 0.079 | – | – | –
4 | Cc1ccccc1CN1CCC(CNC(=O)c2cncc(NC(=O)c3ccnc(NC(=O)C4CC4)c3)c2)CC1 | 4.09 | 3.52 | 0.157 | – | – | –
5 | O=C(Nc1cncc(OCC2CCN(Cc3ccccc3)CC2)c1)c1ccnc2[nH]ccc12 | 0.0039 | 0.0023 | 0.837 | – | – | –
6 | O=C(NC1CCN(Cc2ccccc2)CC1)c1cncc(NC(=O)c2ccnc3[nH]ccc23)c1 | 0.358 | 0.311 | 6.8 | – | – | –
7 | O=C(Nc1cncc(C(=O)NC2CCN(Cc3cccc(Cl)c3)CC2)c1)c1ccnc(NC(=O)C2CC2)c1 | 2.5 | 0.951 | 0.063 | – | – | –
8 | O=C(NCC1CCN(Cc2cccc(Cl)c2)CC1)c1cncc(NC(=O)c2ccnc(NC(=O)C3CC3)c2)c1 | 1.09 | 0.678 | 0.231 | – | – | –
9 | CC(=O)Nc1cc(C(=O)Nc2cccc(OCC3CCN(Cc4ccccc4)CC3)c2)ccn1 | > 10 | 2.2 | > 10 | – | – | –
10 | Cc1cccc(CN2CCC(CNC(=O)c3cncc(NC(=O)c4ccnc(NC(=O)C5CC5)c4)c3)CC2)c1 | 6360 | 4.16 | 0.198 | – | – | –
11 | O=C(NCC1CCN(Cc2ccccc2)CC1)c1n[nH]c2ccc(-c3cccnc3)cc12 | 1.09 | 0.552 | 0.095 | – | – | –
12 | O=C(NCC1CCN(Cc2cccc(F)c2)CC1)c1cncc(NC(=O)c2ccnc(NC(=O)C3CC3)c2)c1 | 2.39 | 1.02 | 0.097 | – | – | –
13 | CC(=O)Nc1cc(C(=O)Nc2cccc(OCC3CCN(Cc4ccc(F)cc4)CC3)c2)ccn1 | – | > 10 | > 10 | – | – | –
14 | O=C(CC1CCN(Cc2ccc(F)cc2)CC1)Nc1n[nH]c2cc(-c3cccnc3)ccc12 | 0.518 | 0.216 | > 10 | – | – | –
15 | COc1cc2c(cc1OC)C(=O)C(CC1CCN(Cc3ccccc3)CC1)C2 (stereo not drawn) [DONEPEZIL] | – | – | > 10 | Active | Active | Active
